Where “and” joins values, the source holds several entries; their conditions need not be identical. Identical values can stand only once.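 The compound was tested at five concentrations on cells cultured in 96-well plates, with a 48-hour exposure period. GI50 marks 50% less growth. At the TGI there is no net growth.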
Assays:
Assay in all cases: NCI tumour cell line growth inhibition, 48 h
[1] = test system: CCRF-CEM leukemia
[2] = test system: HCT-116 colon
[3] = test system: K-562 leukemia
[4] = test system: MALME-3M melanoma
[5] = test system: MOLT-4 leukemia
[6] = test system: OVCAR-5 ovarian
[7] = test system: SF-295 CNS
[8] = test system: SN12C renal
[9] = test system: DU-145 prostate
[10] = test system: NCI-H522 lung

O=C1N[C@@H](O)[C@@H]2ON=C(c3ccccc3)[C@H]12
TGI [1]: > 100 µM
TGI [2]: > 100 µM
TGI [3]: > 100 µM
TGI [4]: > 100 µM
TGI [5]: > 100 µM
TGI [6]: > 100 µM
TGI [7]: > 100 µM
TGI [8]: > 100 µM

O=C1c2ccccc2-c2c1c1ccccc1c(=O)n2CCNCCCNCCn1c2c(c3ccccc3c1=O)C(=O)c1ccccc1-2
GI50 [1]: < 0.005 µM
TGI [1]: 1.43 µM
GI50 [9]: 0.0736 µM
TGI [9]: 0.739 µM
GI50 [2]: < 0.005 µM
TGI [2]: 0.262 µM
GI50 [5]: < 0.005 µM
TGI [5]: > 50 µM
GI50 [10]: 2.91 µM
TGI [10]: 14.1 µM
GI50 [6]: 0.42 µM
TGI [6]: 1.1 µM
GI50 [7]: 0.00771 µM
TGI [7]: 0.368 µM
GI50 [8]: 0.011 µM
TGI [8]: 0.436 µM

COC(=O)C(Cc1ccccc1)N/C=C\C(=O)c1ccc(Cl)cc1 (centres undefined)
GI50 [1]: 39.7 µM
TGI [1]: > 100 µM
GI50 [9]: 31.5 µM
TGI [9]: > 100 µM
GI50 [2]: 16.4 µM
TGI [2]: 36.9 µM
GI50 [3]: 54.7 µM
TGI [3]: > 100 µM
GI50 [5]: 35.2 µM
TGI [5]: > 100 µM
GI50 [10]: 32.5 µM
TGI [10]: > 100 µM
GI50 [6]: 24.9 µM
TGI [6]: 74.4 µM
GI50 [7]: 14.8 µM
TGI [7]: 35.8 µM
GI50 [8]: 16.7 µM
TGI [8]: 40.5 µM

O=C(Nc1ccc(S(=O)(=O)N[C@@H](C(=O)O)c2ccccc2)cc1)c1ccc(F)cc1
TGI [1]: > 100 µM
TGI [3]: > 100 µM
TGI [4]: > 100 µM
TGI [5]: > 100 µM
TGI [10]: > 100 µM
TGI [6]: > 100 µM
TGI [7]: > 100 µM
TGI [8]: > 100 µM

COc1cc(/C=C/C(=N\NC(=O)c2ccccc2)c2sc(Nc3ccc(Cl)c(Cl)c3)nc2C)ccc1O
TGI [1]: > 100 µM
TGI [2]: > 100 µM
TGI [3]: 95.9 µM
TGI [4]: 70.6 µM
TGI [5]: 66.6 µM
TGI [10]: 47.6 µM
TGI [6]: 81.1 µM
TGI [7]: > 100 µM
TGI [8]: > 100 µM

CCOC(=O)Cc1nc(/C(C#N)=C/c2ccco2)[nH]c(=O)c1C#N
TGI [1]: > 100 µM
TGI [2]: > 100 µM
TGI [3]: > 100 µM
TGI [5]: > 100 µM
TGI [10]: > 100 µM
TGI [6]: > 100 µM
TGI [7]: > 100 µM
TGI [8]: > 100 µM

COc1ccc(C2C(N)=NCC2c2ccccn2)cc1 (centres undefined)
TGI [1]: > 100 µM
TGI [2]: > 100 µM
TGI [3]: > 100 µM
TGI [4]: > 100 µM
TGI [5]: > 100 µM
TGI [10]: > 100 µM
TGI [6]: > 100 µM
TGI [7]: > 100 µM
TGI [8]: > 100 µM

O=C1CCn2c([nH]c3cccc4cccc2c43)=N1
TGI [1]: > 100 µM
TGI [2]: > 100 µM
TGI [3]: > 100 µM
TGI [5]: > 100 µM
TGI [6]: > 100 µM
TGI [8]: > 100 µM

CC(=O)O[C@H]1C(=O)[C@@]2(C)[C@H]([C@H](OC(=O)c3ccccc3)[C@]3([O-])C[C@H](OC(=O)[C@H]([O-])[C@@H](NC(=O)c4ccccc4)c4ccccc4)C(C)=C1C3(C)C)[C@]1(OC(C)=O)CO[C@@H]1C[C@@H]2[O-].[Fe+3]
GI50 [1]: 0.249 µM and 0.876 µM
TGI [1]: 65 µM and 68.9 µM
GI50 [9]: 0.068 µM and 0.0595 µM
TGI [9]: 0.272 µM and 0.595 µM
GI50 [2]: 0.0253 µM and 0.0388 µM
GI50 [3]: 0.0839 µM and 0.0988 µM
TGI [3]: 65 µM and > 100 µM
TGI [5]: 65 µM and > 100 µM
GI50 [10]: 0.0385 µM
TGI [10]: 12.8 µM
GI50 [6]: 0.88 µM
TGI [6]: 11.1 µM and > 100 µM
GI50 [7]: 0.0836 µM
TGI [7]: > 100 µM
TGI [8]: 65 µM and > 100 µM

COc1ccc(/C=C/C(=O)c2sc(-n3nc(-c4ccccc4)cc3-c3ccccc3)nc2C)cc1OC
TGI [1]: 92.1 µM
TGI [2]: > 100 µM
TGI [3]: 83.3 µM
TGI [4]: > 100 µM
TGI [5]: 64.8 µM
TGI [10]: 53.9 µM
TGI [6]: 92.6 µM
TGI [7]: 74.2 µM
TGI [8]: > 100 µM

CC1CCCC(C(=O)/C(=C/c2cccc(Cl)c2)C(=O)C(=O)O)C1 (centres undefined)
TGI [1]: 48.3 µM
TGI [2]: 26.9 µM
TGI [3]: 47.4 µM
TGI [4]: > 100 µM
TGI [5]: 49.8 µM
TGI [10]: 24.7 µM
TGI [6]: > 100 µM
TGI [7]: > 100 µM
TGI [8]: > 100 µM

NC1=NC(=O)C(CC(=O)Nc2ccc([N+](=O)[O-])cc2[N+](=O)[O-])S1 (centres undefined)
TGI [1]: > 100 µM
TGI [2]: > 100 µM
TGI [4]: > 100 µM
TGI [5]: > 100 µM
TGI [6]: > 100 µM
TGI [7]: > 100 µM
TGI [8]: > 100 µM

CC(O)CN1C(=O)NC(Cc2ccccc2)C1=O (centres undefined)
TGI [10]: > 100 µM
TGI [6]: > 100 µM
TGI [7]: > 100 µM
TGI [8]: > 100 µM

CN1CCN(C)C1c1cccc(C2N(C)CCN2C)c1
TGI [1]: > 100 µM
TGI [2]: > 100 µM
TGI [3]: > 100 µM
TGI [5]: > 100 µM
TGI [10]: > 100 µM
TGI [6]: > 100 µM
TGI [7]: > 100 µM
TGI [8]: > 100 µM

CC1(C)CCc2cc3c(cc2O1)OCCC3=O
TGI [1]: > 100 µM
TGI [2]: > 100 µM
TGI [3]: > 100 µM
TGI [4]: > 100 µM
TGI [5]: > 100 µM
TGI [10]: > 100 µM
TGI [6]: > 100 µM
TGI [7]: > 100 µM
TGI [8]: > 100 µM

CC1(C)OC(=O)C=C([O-])O1.CC1(C)OC(=O)C=C([O-])O1.O=c1c(O)c(-c2ccc([O-])cc2[O-])oc2cc(O)cc(O)c12.[Ti+4]
TGI [1]: > 100 µM
TGI [2]: > 100 µM
TGI [3]: > 100 µM
TGI [4]: > 100 µM
GI50 [5]: 31.6 µM
TGI [5]: > 100 µM
TGI [10]: 63 µM
TGI [6]: > 100 µM
TGI [7]: > 100 µM
TGI [8]: > 100 µM

O=C1c2ccccc2-c2cccc3ccc(Cc4ccccc4)c1c23
TGI [1]: > 100 µM
TGI [2]: > 100 µM
TGI [3]: > 100 µM
TGI [4]: > 100 µM
TGI [5]: > 100 µM
TGI [10]: > 100 µM
TGI [6]: > 100 µM
TGI [7]: > 100 µM
TGI [8]: > 100 µM

CC/C=C\C/C=C\C1CC(=O)NCCCNCCCCN1 (centres undefined)
TGI [2]: > 100 µM
TGI [4]: 78.9 µM
TGI [10]: > 100 µM
TGI [6]: > 100 µM
TGI [7]: > 100 µM
TGI [8]: > 100 µM

CC(=O)OCCOCBr
TGI [1]: > 100 µM
TGI [2]: > 100 µM
TGI [3]: > 100 µM
TGI [4]: > 100 µM
TGI [10]: > 100 µM
TGI [6]: > 100 µM
TGI [7]: > 100 µM
TGI [8]: > 100 µM

CC1=Nc2c(ccc3c2C(=O)c2ccccc2C3=O)NC(c2ccncc2)C1 (centres undefined)
TGI [1]: > 100 µM
TGI [2]: > 100 µM
TGI [3]: > 100 µM
GI50 [4]: > 100 µM
TGI [4]: > 100 µM
TGI [5]: > 100 µM
TGI [10]: > 100 µM
TGI [6]: > 100 µM
GI50 [7]: > 100 µM
TGI [7]: > 100 µM
TGI [8]: > 100 µM

O=c1c2ccccc2c2c3c1cccc3c1cccc3c(=O)c4ccccc4c2c31
TGI [1]: > 100 µM
TGI [2]: > 100 µM
TGI [3]: > 100 µM
TGI [4]: > 100 µM
TGI [5]: > 100 µM
TGI [10]: > 100 µM
TGI [6]: > 100 µM
TGI [7]: > 100 µM
TGI [8]: > 100 µM

C=C(COC(C)=O)CC(/C=C(\C)CCC=C(C)C)OC(C)=O (centres undefined)
TGI [1]: > 100 µM
TGI [2]: > 100 µM
TGI [3]: > 100 µM
TGI [5]: > 100 µM
TGI [10]: > 100 µM
TGI [6]: > 100 µM
TGI [7]: > 100 µM
TGI [8]: > 100 µM
